Entries after “also recorded” stand apart in the source; their conditions may differ.
Experiments:
[1] = tested on: human αMHC promoter-driven EGFP transgenic monkey ESCs; assay: αMHC promoter-driven GFP expression, cardiac differentiation of transgenic monkey ESCs (HCA); format: cell-based; conditions: for intensity of the GFP signal driven by αMHC promoter: comparison of chemical and proteinaceous WNT inhibitors, FIG. 3b,c; for cardiac differentiation when BIO was added: monkey ESCs and hiPSCs, with 5 μM BIO
Text: To generate human αMHC promoter-driven EGFP-expressing monkey ESCs, the 918 bp upstream from the transcriptional starting site and the third exon just before the open reading frame were amplified from genomic DNAs of KhES-1 hESCs by PCR, using the following primer sets —forward primer, 5′- […]-3′ (SEQ ID No: 37); reverse primer, 5′- (including a SalI linker) 22 […]-3′ (SEQ ID No: 38)—and then ligated into pGEM-T Easy Vector (Promega). The HindIII/SalI fragment from the cloning vector was connected with pEGFP-1 (Clontech). The linearized αMHC-EFGP vector was introduced into CMK6.4 monkey ESCs by electroporation. Transgenic ESC clones were selectively grown with G418 (Sigma-Aldrich). The expression of EGEP was confirmed in beating colonies.
The confluent (4-5 d after passage) αMHC-GFP transgenic monkey ESCs were dissociated enzymatically by CTK solution (Non-patent literature 1), and the ESC clumps (40-100 μm in diameter) were obtained using 40 and 100 μm Cell Strainers (BD Biosciences). The ESC clumps (approximately 5.0×10^3 cells well^−1) were transferred onto 96-well plates (Greiner Bio-One, 96-well black plate, Cat. No. 655090) and incubated in cardiac differentiation medium as described in (4) below. During Days 6-14 of cardiac differentiation, 9600 compounds from the chemical library (dissolved in DMSO) were screened using 96-well plates. Sixteen and 80 wells were used for the control (0.1% DMSO) and chemical compounds (1 per well), respectively. Final concentration of the each compound was approximately 1-5 μM. Medium containing small molecules was changed every 4 d. On Day 14, GFP fluorescence of ESCs was measured by whole-plate scanning, using the Metamorph imaging system (Molecular Device). Metamorph software was used to analyze the GFP fluorescence data and calculate Fluorescence Area, Total Fluorescence Intensity, Average Fluorescence Intensity, and number of GFP-positive colonies for each well. Hit compounds were determined by the following criteria: Average Fluorescence Intensity of a well with the compound was >6 SD greater than Average Fluorescence Intensity of the control (mean of 16 wells), and Total Fluorescence Intensity for the compound was >0 SD greater than the control; or Total Fluorescence Intensity of the compound was >4 SD greater than the control, and Average Fluorescence Intensity of the compound was >0 SD greater than the control. One hundred and twenty compounds passed these criteria and were retested using 8 wells for each compound.
Confluent hESCs and hiPSCs were gently detached with CTK solution and transferred into Petri dishes (BD Biosciences) with Primate ES Cell Culture Medium (ReproCELL, Japan). Cells were held in suspension culture for 8-24 h to form aggregates. The sizes of hPSC aggregates (0.3-1 mm in diameter) are important for efficient differentiation. Following suspension culture, cell aggregates were attached to culture dishes (3-10×10^5 cells cm^−2) in cardiac differentiation medium: IMDM (Sigma), containing 20% FBS (Gibco), 1% MEM non-essential amino acid solution (Sigma), 1% Penicillin-Streptomycin (Gibco), 2 mM L-glutamine (Sigma), 0.001% 2-Mercaptoethanol (Gibco), and 0.005N NaOH, with 10 ng ml^−1 BMP4 (R&D Systems). The medium was changed to cardiac differentiation medium with 10 μM KY02111 and/or other WNT inhibitors added on Day 3 (hiPSC lines) or Day 4 (human or monkey ESC lines); XAV939 (Wako, Japan), IWP-2 (Santa Cruz Biotechnology), IWR-1 (Merck4Bioscience), IGFBP4 (R&D Systems), Dkk1 (R&D Systems) and the mixture of bFGF (R&D Systems), BMP4 (R&D Systems), VEGF (R&D Systems), DKK1 (R&D Systems), and Activin A (R&D Systems) (Non-patent literature 16). Medium was changed every 2-3 d. KY02111 and other WNT inhibitors were added until Day 9 for hiPSC lines and the monkey ESC line, or Day 14 for hESC lines. […]

[2] = tested on: TCF promoter activity (canonical WNT signaling) in IMR90-1 hiPSCs; assay: TOPflash TCF reporter-luciferase assay in hiPSCs; format: cell-based, human; conditions: 10 μM, with 60 ng/ml Wnt3a or 3 μM BIO
Method: For the TCF reporter assay, IMR90-1 hiPSCs were cultured in the serum-containing differentiation culture, as described above, and transfected with TOPFlash plasmid (Millipore 21-170) and pRL-SV40 plasmid (Renilla luciferase transfection control, Promega E1980) on Day 2, using FuGENE HD transfection Reagenet (Promega E2311). After 24 h, 10 μM KY02111, 10 μM XAV939, or 10 μM IWP-2 was added to the medium, along with either 60 ng ml^−1 of mouse Wnt3a (Wako 232-02421) or 3 μM BIO. After 48 h of transfection (Day 4), luciferase activities were measured using a Dual-Luciferase Reporter 1000 Assay System kit (Promega E1980) and a 2030 ARVO X3 plate reader (PerkinElmer). Luciferase activities were normalized to the luminescence of the transfection control, Rennila luciferase, according to the kit protocol. For experiments using HEK293 cells, the cells were cultured in 10% FBS DMEM medium, and transfected with TOPflash and pRL-SV40 plasmid, using FuGENE HD. After 24 h, the transfected cells were seeded onto 96-well plates (10,000 cells well^−1) in medium containing 10 μM KY02111, 10 μM XAV939, or 10 μM IWP-2, along with 3 μM BIO or 60 ng ml^−1 mouse Wnt3a. Luciferase activities were measured 48 h after transfection by the procedure described above.

| Structure (SMILES) | intensity of the GFP signal driven by αMHC promoter [1] | cardiac differentiation when BIO was added [1] | TCF promoter (luciferase) activity elevated by Wnt3a or BIO [2] | increase of differentiation compared to the control (GFP signal) ([1]; 10 μM, comparison of WNT inhibitors, FIG. 3b) | GFP expression level induced by N11474 and related compounds (structure-activity) ([1]; DMSO=100%) | promotion of cardiac differentiation relative to DMSO control (GFP increase ratio) ([1]; FIG. 1d) | promotion of cardiac differentiation relative to N11474 ([1]; FIG. 1d) |
| --- | --- | --- | --- | --- | --- | --- | --- |
| Cc1ccc2nc(NC(=O)CSc3nc4c(c(=O)n3-c3ccccc3)SCC4)sc2c1 [IWP-2, reference compound] | increased | completely inhibited | didn't inhibit | – | – | – | – |
| Oc1nc(-c2ccc(C(F)(F)F)cc2)nc2c1CSCC2 [XAV939, reference compound] | increased | completely inhibited | clearly reduced luciferase activities; also recorded: inhibited | – | – | – | – |
| COc1ccc(CCC(=O)Nc2nc3ccc(Cl)cc3s2)cc1OC [KY02111, 2-(3-(3,4-dimethoxyphenyl)propanamide)-6-chlorobenzothiazole] | most effective | not affected by BIO | clearly reduced luciferase activities; also recorded: inhibited | about 80 fold | induced the highest levels | about 73 times | 7.4 times |
